Article PMC8600679, “Substituted Two- to Five-Ring Polycyclic Aromatic Compounds Are Potent Agonists of Atlantic Cod (Gadus morhua) Aryl Hydrocarbon Receptors Ahr1a and Ahr2a” (Environmental Science & Technology, 2021)
Where two headings read alike, the source gives them in different places.

What was measured:
Atlantic cod Ahr1a = Atlantic cod Ahr1a (Gadus morhua, UniProt A0A6H1Z2L5); experiment: cell-based; details: for Activation of Ahr1a (agonist or not): in vitro transactivation; for Ahr1a REP25: EC25 of TCDD divided by concentration of PAC giving 25% of TCDD response; for Efficacy compared to TCDD with Ahr1a: Welch's t-test, Supporting Table S6
Atlantic cod Ahr1a, sequence (A0A6H1Z2L5 1-957): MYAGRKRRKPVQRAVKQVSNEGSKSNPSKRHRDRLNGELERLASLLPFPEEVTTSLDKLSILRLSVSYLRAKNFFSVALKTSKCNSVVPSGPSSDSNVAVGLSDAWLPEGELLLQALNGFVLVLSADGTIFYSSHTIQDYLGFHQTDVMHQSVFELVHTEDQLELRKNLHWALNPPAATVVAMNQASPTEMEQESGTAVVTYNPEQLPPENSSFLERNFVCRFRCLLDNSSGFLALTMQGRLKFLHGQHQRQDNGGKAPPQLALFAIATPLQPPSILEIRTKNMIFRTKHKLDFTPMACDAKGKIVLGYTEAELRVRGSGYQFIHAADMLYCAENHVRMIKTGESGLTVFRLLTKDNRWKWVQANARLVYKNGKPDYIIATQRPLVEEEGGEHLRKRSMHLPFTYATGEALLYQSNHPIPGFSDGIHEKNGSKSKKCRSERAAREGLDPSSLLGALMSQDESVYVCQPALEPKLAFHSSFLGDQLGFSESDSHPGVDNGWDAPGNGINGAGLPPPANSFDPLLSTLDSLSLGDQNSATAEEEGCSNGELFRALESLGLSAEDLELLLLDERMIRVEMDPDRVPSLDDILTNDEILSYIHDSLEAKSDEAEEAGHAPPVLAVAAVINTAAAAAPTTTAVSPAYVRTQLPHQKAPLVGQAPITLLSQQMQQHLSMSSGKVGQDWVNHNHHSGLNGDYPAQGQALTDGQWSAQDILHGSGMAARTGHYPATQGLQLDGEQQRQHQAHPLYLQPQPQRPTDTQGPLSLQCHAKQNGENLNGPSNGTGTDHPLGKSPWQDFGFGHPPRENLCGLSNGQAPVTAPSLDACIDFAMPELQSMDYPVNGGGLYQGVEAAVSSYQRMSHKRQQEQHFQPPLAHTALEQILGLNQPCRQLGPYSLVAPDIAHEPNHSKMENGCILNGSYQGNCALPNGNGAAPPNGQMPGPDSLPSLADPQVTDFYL
Atlantic cod Ahr1a, sequence (A0A8C5CZZ9 1-645 partner): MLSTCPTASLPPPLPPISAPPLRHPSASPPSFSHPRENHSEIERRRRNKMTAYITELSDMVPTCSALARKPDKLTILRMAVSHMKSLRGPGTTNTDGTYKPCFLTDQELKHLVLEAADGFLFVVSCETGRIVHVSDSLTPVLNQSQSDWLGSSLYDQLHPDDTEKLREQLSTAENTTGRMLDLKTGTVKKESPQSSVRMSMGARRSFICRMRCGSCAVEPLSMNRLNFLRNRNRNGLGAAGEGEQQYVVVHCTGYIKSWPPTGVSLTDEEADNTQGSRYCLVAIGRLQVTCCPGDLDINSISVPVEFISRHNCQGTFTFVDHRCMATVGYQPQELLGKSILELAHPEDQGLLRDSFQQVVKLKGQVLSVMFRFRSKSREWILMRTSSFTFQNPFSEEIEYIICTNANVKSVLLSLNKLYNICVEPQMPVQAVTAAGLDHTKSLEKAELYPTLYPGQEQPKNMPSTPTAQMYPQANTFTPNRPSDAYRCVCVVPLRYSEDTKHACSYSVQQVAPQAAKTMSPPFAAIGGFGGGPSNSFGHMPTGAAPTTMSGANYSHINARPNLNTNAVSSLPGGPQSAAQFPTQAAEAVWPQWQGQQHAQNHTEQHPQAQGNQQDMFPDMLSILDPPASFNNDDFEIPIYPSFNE

Atlantic cod Ahr2a = target: T1, Atlantic cod Ahr2a (Gadus morhua, UniProt A0A6H1Z3G8); experiment: cell-based; details: for Activation of Ahr2a (agonist or not): in vitro transactivation; for Ahr2a REP25: EC25 of TCDD divided by concentration of PAC giving 25% of TCDD response; for Efficacy compared to TCDD via Ahr2a: Welch's t-test, Supporting Table S6; for fold higher REP25 with Ahr2a compared to Ahr1a: Ahr2a versus Ahr1a
T1 sequence (A0A6H1Z3G8 1-1127): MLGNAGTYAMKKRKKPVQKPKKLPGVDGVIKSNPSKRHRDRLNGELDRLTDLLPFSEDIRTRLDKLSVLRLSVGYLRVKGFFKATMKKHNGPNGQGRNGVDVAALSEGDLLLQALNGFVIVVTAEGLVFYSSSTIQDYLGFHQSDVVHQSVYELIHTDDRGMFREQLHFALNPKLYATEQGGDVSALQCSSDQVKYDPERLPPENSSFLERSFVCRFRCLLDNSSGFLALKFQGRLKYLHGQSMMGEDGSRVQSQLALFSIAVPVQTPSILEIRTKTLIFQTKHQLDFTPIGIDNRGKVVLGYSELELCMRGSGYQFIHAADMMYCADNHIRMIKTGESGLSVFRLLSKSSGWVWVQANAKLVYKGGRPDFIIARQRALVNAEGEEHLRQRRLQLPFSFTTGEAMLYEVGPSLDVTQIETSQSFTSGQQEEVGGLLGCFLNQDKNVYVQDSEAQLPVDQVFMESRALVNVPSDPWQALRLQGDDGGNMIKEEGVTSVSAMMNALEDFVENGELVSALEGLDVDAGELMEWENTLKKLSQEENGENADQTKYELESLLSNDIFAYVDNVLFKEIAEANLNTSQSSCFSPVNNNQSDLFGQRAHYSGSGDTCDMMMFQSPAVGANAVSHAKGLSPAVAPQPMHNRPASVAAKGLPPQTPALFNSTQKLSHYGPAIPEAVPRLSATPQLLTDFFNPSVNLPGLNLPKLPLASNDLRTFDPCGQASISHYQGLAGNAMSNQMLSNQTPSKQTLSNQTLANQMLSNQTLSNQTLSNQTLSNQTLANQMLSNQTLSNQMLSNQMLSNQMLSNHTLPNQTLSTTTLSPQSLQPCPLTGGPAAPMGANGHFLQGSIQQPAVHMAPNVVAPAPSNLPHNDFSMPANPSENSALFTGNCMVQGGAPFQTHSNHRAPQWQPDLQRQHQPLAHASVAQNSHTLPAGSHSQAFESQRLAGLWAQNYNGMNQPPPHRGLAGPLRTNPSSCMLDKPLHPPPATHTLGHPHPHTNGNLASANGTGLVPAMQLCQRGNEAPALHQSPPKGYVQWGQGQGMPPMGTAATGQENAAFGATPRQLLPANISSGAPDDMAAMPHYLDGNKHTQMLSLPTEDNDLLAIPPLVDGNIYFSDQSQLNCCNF

[1] = percent of maximum efficacy determined for TCDD, COS-7 cells, 24 h exposure, None = no agonistic response significantly different from solvent
[2] = COS-7 cells, 24 h exposure, read-out: Ahr1a EC50
[3] = Supplementary Table S5, read-out: Potency (EC50, nM) Ahr1a
[4] = percent of maximum efficacy determined for TCDD, COS-7 cells, 24 h exposure, None = no agonistic response significantly different from solvent, read-out: Ahr1a Relative Emax (%)
[5] = COS-7 cells, 24 h exposure, read-out: Ahr2a EC50
[6] = Supplementary Table S5, read-out: Potency (EC50, nM) Ahr2a
[7] = percent of maximum efficacy determined for TCDD, COS-7 cells, 24 h exposure, None = no agonistic response significantly different from solvent, read-out: Ahr2a Relative Emax (%)
[8] = Ahr1a EC50 (nM), COS-7 cells, 24 h exposure
[9] = COS-7, read-out: Ahr1a Relative Emax (%)
[10] = Ahr2a EC50 (nM), COS-7 cells, 24 h exposure
[11] = COS-7, read-out: Ahr2a Relative Emax (%)
[12] = COS-7, Supplementary Table S5, read-out: Efficacy (Emax, %) Ahr1a
[13] = COS-7, Supplementary Table S5, read-out: Efficacy (Emax, %) Ahr2a
[14] = COS-7, curve did not reach a plateau: relative response at the highest tested concentration, percent of TCDD maximum, read-out: Ahr1a Relative Emax (%), marked *
[15] = COS-7, curve did not reach a plateau: relative response at the highest tested concentration, percent of TCDD maximum, read-out: Ahr2a Relative Emax (%), marked *

| Structure (SMILES) | Activation of Ahr1a (agonist or not) (Atlantic cod Ahr1a) | Ahr1a Relative Emax (%) (Atlantic cod Ahr1a; [1]) | Activation of Ahr2a (agonist or not) (Atlantic cod Ahr2a) | Ahr2a Relative Emax (%) (Atlantic cod Ahr2a; [1]) | Ahr1a REP25 (Atlantic cod Ahr1a) | Efficacy compared to TCDD with Ahr1a (Atlantic cod Ahr1a) | Ahr2a REP25 (Atlantic cod Ahr2a) | further results |
| --- | --- | --- | --- | --- | --- | --- | --- | --- |
| Cc1ccc(C)c2c1ccc1ccccc12 [1,4-DMP, 1,4-Dimethylphenanthrene] | did not activate | None | did not activate | None | – | – | – | – |
| Cc1ccc2c(ccc3c(C)cccc32)c1 [1,7-DMP, 1,7-Dimethylphenanthrene] | did not activate | None | did not activate | None | – | – | – | – |
| COc1cccc2c1ccc1c3ccccc3ccc21 [1-MOC, 1-Methoxychrysene] | – | – | – | – | 0.0277 | efficacies similar to that of TCDD | 0.0243 | EC50 (Atlantic cod Ahr1a; [2]): 102 nM; EC50 (Atlantic cod Ahr1a; [3]): 102 nM; Emax (Atlantic cod Ahr1a; [4]): 97.3%; EC50 (Atlantic cod Ahr2a; [5]): 160 nM; EC50 (Atlantic cod Ahr2a; [6]): 160 nM; Efficacy compared to TCDD via Ahr2a (Atlantic cod Ahr2a): lower efficacies in comparison to TCDD; Emax (Atlantic cod Ahr2a; [7]): 66.4% |
| Cc1ccc2c(ccc3cc(C)ccc32)c1 [2,7-DMP, 2,7-Dimethylphenanthrene] | did not activate | None | did not activate | None | – | – | – | – |
| Oc1ccc2c(ccc3c4ccccc4ccc23)c1 [2-COH, Chrysene-2-ol] | – | – | – | – | 0.00268 | efficacies similar to that of TCDD | 0.0038 | EC50 (Atlantic cod Ahr1a; [8]): 325 nM; Emax (Atlantic cod Ahr1a; [9]): 91.1%; EC50 (Atlantic cod Ahr1a; Potency (EC50, nM) Ahr1a, Supplementary Table S5): 324 nM; EC50 (Atlantic cod Ahr2a; [10]): 380 nM; Emax (Atlantic cod Ahr2a; [11]): 40.8%; Efficacy compared to TCDD via Ahr2a (Atlantic cod Ahr2a): lower efficacies in comparison to TCDD |
| Cc1ccc2c(ccc3c4ccccc4ccc23)c1 [2-MC, 2-Methylchrysene] | – | – | – | – | 0.324 | higher efficacies (superefficacies) than TCDD | – | Emax (Atlantic cod Ahr1a; [12]): 125%; EC50 (Atlantic cod Ahr1a; [2]): 22 nM; Emax (Atlantic cod Ahr1a; [4]): 125%; Emax (Atlantic cod Ahr2a; [13]): 127%; EC50 (Atlantic cod Ahr2a; [5]): 41.8 nM; Efficacy compared to TCDD via Ahr2a (Atlantic cod Ahr2a): superefficacies; Emax (Atlantic cod Ahr2a; [7]): 127% |
| COc1ccc2c(ccc3c4ccccc4ccc23)c1 [2-MOC, 2-Methoxychrysene] | – | – | – | – | 0.244 | efficacies similar to that of TCDD | – | EC50 (Atlantic cod Ahr1a; [2]): 13 nM; Emax (Atlantic cod Ahr1a; [4]): 95.9%; Emax (Atlantic cod Ahr2a; [13]): 114%; EC50 (Atlantic cod Ahr2a; [5]): 20.1 nM; Efficacy compared to TCDD via Ahr2a (Atlantic cod Ahr2a): superefficacies; Emax (Atlantic cod Ahr2a; [7]): 115% |
| Cc1ccc2ccc3ccc(C)cc3c2c1 [3,6-DMP, 3,6-Dimethylphenanthrene] | did not activate | None | did not activate | None | – | – | – | – |
| CCc1ccc2ccc3ccccc3c2c1 [3-EP, 3-Ethylphenanthrene] | did not activate | None | did not activate | None | – | – | – | – |
| Cc1ccc2ccc3c4ccccc4ccc3c2c1 [3-MC, 3-Methylchrysene] | – | – | – | – | 0.0413 | efficacies similar to that of TCDD | 0.167 | Emax (Atlantic cod Ahr1a; [12]): 110%; EC50 (Atlantic cod Ahr1a; [3]): 101 nM; Emax (Atlantic cod Ahr1a; [4]): 111%; Emax (Atlantic cod Ahr2a; [13]): 102%; EC50 (Atlantic cod Ahr2a; [5]): 54 nM; Emax (Atlantic cod Ahr2a; [7]): 102% |
| CCCc1ccc2ccc3ccccc3c2c1 [3-PP, 3-Propylphenanthrene] | activated both Ahr1a and Ahr2a | – | activated both Ahr1a and Ahr2a | – | 0.00011 | – | – | Emax (Atlantic cod Ahr1a; [14]): 42.5%; Emax (Atlantic cod Ahr2a; [7]): 12.4% |
| Oc1cccc2ccc3c4ccccc4ccc3c12 [4-COH, Chrysene-4-ol] | – | – | – | – | 0.00105 | efficacies similar to that of TCDD | 0.0016 | EC50 (Atlantic cod Ahr1a; [2]): 1340 nM; Emax (Atlantic cod Ahr1a; [4]): 91.7%; Emax (Atlantic cod Ahr2a; [15]): 98.8%; EC50 (Atlantic cod Ahr2a; [6]): 11000 nM |
| Cc1cccc2ccc3c4ccccc4ccc3c12 [4-MC, 4-Methylchrysene] | – | – | – | – | 0.041 | higher efficacies (superefficacies) than TCDD | 0.0217 | Emax (Atlantic cod Ahr1a; [12]): 112%; EC50 (Atlantic cod Ahr1a; [2]): 120 nM; Emax (Atlantic cod Ahr1a; [4]): 113%; EC50 (Atlantic cod Ahr2a; [5]): 128 nM; EC50 (Atlantic cod Ahr2a; [6]): 128 nM; Efficacy compared to TCDD via Ahr2a (Atlantic cod Ahr2a): lower efficacies in comparison to TCDD; Emax (Atlantic cod Ahr2a; [7]): 55.9% |
| c1ccc2c(c1)cc1ccc3cccc4ccc2c1c34 [BAP, Benzo[a]pyrene] | agonist for both Ahrs | – | agonist for both Ahrs | – | 0.0956 | higher efficacies (superefficacies) than TCDD | – | EC50 (Atlantic cod Ahr1a; [8]): 25.8 nM; Emax (Atlantic cod Ahr1a; [9]): 107%; Emax (Atlantic cod Ahr1a; COS-7, read-out: Efficacy (Emax, %) Ahr1a): 107%; EC50 (Atlantic cod Ahr2a; [10]): 6.8 nM; fold higher REP25 with Ahr2a compared to Ahr1a (Atlantic cod Ahr2a): 5- to 10 fold; Emax (Atlantic cod Ahr2a; [11]): 103%; Emax (Atlantic cod Ahr2a; COS-7, read-out: Efficacy (Emax, %) Ahr2a): 103% |
| c1ccc2c(c1)sc1ccccc12 [DBT, Dibenzothiophene] | did not activate | None | did not activate | None | – | – | – | – |
| c1ccc2c(c1)Cc1ccccc1-2 [FLU, Fluorene] | did not activate | None | did not activate | None | – | – | – | – |
| c1ccc2ccccc2c1 [NAP, Naphthalene] | did not activate | None | did not activate | None | – | – | – | – |
| c1ccc2c(c1)ccc1ccccc12 [PHE, Phenanthrene] | did not activate | None | did not activate | None | – | – | – | – |
| c1cc2ccc3cccc4ccc(c1)c2c34 [PYR, Pyrene] | did not activate | None | did not activate | None | – | – | – | – |
| O[C@@H]1C=Cc2ccccc2[C@H]1O [R,R-1,2-DHN, (1R,2R)-1.2-Dihydronaphthalene-1,2-diol] | activated both Ahr1a and Ahr2a | – | activated both Ahr1a and Ahr2a | – | 0.00028 | – | 0.00124 | Emax (Atlantic cod Ahr1a; [14]): 145%; fold higher REP25 with Ahr2a compared to Ahr1a (Atlantic cod Ahr2a): 5- to 10 fold; Emax (Atlantic cod Ahr2a; [15]): 140% |
| O[C@@H]1C=Cc2c(ccc3ccccc23)[C@H]1O [R,R-1,2-DHP, (1R,2R)-1.2-Dihydrophenanthrene-1,2-diol] | activated both Ahr1a and Ahr2a | – | activated both Ahr1a and Ahr2a | – | 0.00002 | – | 0.000044 | Emax (Atlantic cod Ahr1a; [14]): 36.1%; Emax (Atlantic cod Ahr2a; [15]): 25.9% |
